Data from patent US5563155A, “Individual stereosiomers of 7-[3-(aminoalkyl)-1-pyrrolidinyl]-quinolones and naphthyridones as antibacterial agents” (Warner-Lambert Company, priority 1995, dated 1996).
Values after ≈ are worked out from the molar mass of the structure shown. Counter-ions that a name gives are not always drawn. Like-named read-outs stand apart in the source and are kept apart here.

Legend:
[1] = tested on: Ent. cloacae MA2646; experiment: in vitro antibacterial activity, microtitration dilution (MIC), Ent. cloacae MA2646; format: cell-based; conditions: Enterobacter cloacae, read-out: minimum inhibiting concentration (MIC)
From the text: (§1) The in vitro antibacterial activity, is obtained by the microtitration dilution method as described in Heifetz, et al., Antimicr. Agents & Chemother., 6, 124 (1974), which is incorporated herein by reference.
(§2) By use of the above methods, the following minimum inhibiting concentration values (MICs in μg/mL), PD50 's in mg/kg, no effect phototoxicity dose in mg/kg and the cytotoxicity IC50 in μg/mL were obtained for representative enantiomers of the invention and compounds of the prior art as shown in the table.

[2] = tested on: Esch. coli Vogel; experiment: in vitro antibacterial activity, microtitration dilution (MIC), Esch. coli Vogel; format: cell-based; conditions: Escherichia coli, read-out: minimum inhibiting concentration (MIC)
From the text: as §1, §2

[3] = tested on: Klebs. pneumoniae MGH-2; experiment: in vitro antibacterial activity, microtitration dilution (MIC), Klebs. pneumoniae MGH-2; format: cell-based; conditions: Klebsiella pneumoniae, MGH2, read-out: minimum inhibiting concentration (MIC)
From the text: as §1, §2

[4] = tested on: Prot. rettgeri M 1771; experiment: in vitro antibacterial activity, microtitration dilution (MIC), Prot. rettgeri M 1771; format: cell-based; conditions: Providencia rettgeri, M1771, read-out: minimum inhibiting concentration (MIC)
From the text: as §1, §2

[5] = tested on: Pseud. aeruginosa UI-18; experiment: in vitro antibacterial activity, microtitration dilution (MIC), Pseud. aeruginosa UI-18; format: cell-based; conditions: Pseudomonas aeruginosa, UI18, read-out: minimum inhibiting concentration (MIC)
From the text: as §1, §2

[6] = tested on: Staph. aureus H 228; experiment: in vitro antibacterial activity, microtitration dilution (MIC), Staph. aureus H 228; format: cell-based; conditions: Staphylococcus aureus, H228, read-out: minimum inhibiting concentration (MIC)
From the text: as §1, §2

[7] = tested on: Staph. aureus UC-76; experiment: in vitro antibacterial activity, microtitration dilution (MIC), Staph. aureus UC-76; format: cell-based; conditions: Staphylococcus aureus, UC76, read-out: minimum inhibiting concentration (MIC)
From the text: as §1, §2

[8] = tested on: Strep. faecalis MGH-2; experiment: in vitro antibacterial activity, microtitration dilution (MIC), Strep. faecalis MGH-2; format: cell-based; conditions: Enterococcus faecalis, MGH2, read-out: minimum inhibiting concentration (MIC)
From the text: as §1, §2

[9] = tested on: Strep. pheumoniae SV-1; experiment: in vitro antibacterial activity, microtitration dilution (MIC), Strep. pneumoniae SV-1; format: cell-based; conditions: Streptococcus pneumoniae, SV1, read-out: minimum inhibiting concentration (MIC)
From the text: as §1, §2

[10] = tested on: Strep. pyogenes C-203; experiment: in vitro antibacterial activity, microtitration dilution (MIC), Strep. pyogenes C-203; format: cell-based; conditions: Streptococcus pyogenes, C203, read-out: minimum inhibiting concentration (MIC)
From the text: as §1, §2

[11] = tested on: Esch. coli Vogel; experiment: median protective dose in mice given lethal systemic infections, Esch. coli Vogel; format: in vivo; conditions: Escherichia coli, single dose at time of challenge, read-out: median protective dose (PD50)
Protocol: (§3) The in vivo activity is obtained when the compounds are tested according to the procedure of Miller, et al (Proc. Soc. Exp. Biol. Med. 57, 261, 1944). The median protective dose (PD50) was determined in mice given lethal systemic infections. Single doses of compound were given at time of challenge.
as §2
(§4) The in vivo data as PD50 s are reported below the line of MICs for the same compound.

[12] = tested on: Strep. pheumoniae SV-1; experiment: median protective dose in mice given lethal systemic infections, Strep. pneumoniae SV-1; format: in vivo; conditions: Streptococcus pneumoniae, single dose at time of challenge, read-out: median protective dose (PD50)
Protocol: as §3, §2, §4

[13] = cytotoxicity, hamster V-79 cells, colony reduction; format: cell-based; conditions: 3 hours treatment, colonies counted after 5 days, read-out: Cytotox (cytotoxicity IC50)
Protocol: The cytotoxicity data is obtained using hamster V-79 cells. The cells were suspended in tissue culture medium and grown overnight. Cells were treated with drug for 3 hours, washed free of drug and then replated, and the colonies counted after 5 days. The concentration of drug that reduced colones by 50% relative to control was recorded.
as §2

[14] = tested on: Strep. pyogenes C-203; experiment: median protective dose in mice given lethal systemic infections, Strep. pyogenes C-203; format: in vivo; conditions: Streptococcus pyogenes, single dose at time of challenge, read-out: median protective dose (PD50)
Protocol: as §3, §2, §4

Compound | MIC [1] | MIC [2] | MIC [3] | MIC [4] | MIC [5] | MIC [6] | MIC [7] | MIC [8] | MIC [9] | MIC [10] | ED50 ([11]; PO) | ED50 ([11]; SC) | ED50 ([12]; SV1, PO) | ED50 ([12]; SV1, SC) | CC50 at 3 h [13] | ED50 ([14]; C203, PO) | ED50 ([14]; C203, SC)
C[C@H](N)[C@@H]1CCN(c2cc3c(cc2F)c(=O)c(C(=O)O)cn3C2CC2)C1 [Example 3, 3R,1S-1-cyclopropyl-6-fluoro-7-[3-(1-aminoethyl)-1-pyrrolidinyl]-1,4-dihydro-4-oxo-3-quinolinecarboxylic acid] | 0.05 µg/mL (≈ 0.139 µM) | 0.05 µg/mL (≈ 0.139 µM) | 0.1 µg/mL (≈ 0.278 µM) | 0.2 µg/mL (≈ 0.556 µM) | 0.4 µg/mL (≈ 1.11 µM) | 0.05 µg/mL (≈ 0.139 µM) | 0.003 µg/mL (≈ 0.00835 µM) | 0.025 µg/mL (≈ 0.0696 µM) | 0.003 µg/mL (≈ 0.00835 µM) | 0.003 µg/mL (≈ 0.00835 µM) | 47 mg/kg | 0.9 mg/kg | 11 mg/kg | 0.7 mg/kg | 42 µg/mL (≈ 117 µM) | – | –
CN[C@H](C)[C@@H]1CCN(c2nc3c(cc2F)c(=O)c(C(=O)O)cn3C2CC2)C1 [Example 22, 3R,1R-1-cyclopropyl-6-fluoro-7-[3-(1-N-methylaminoethyl)-1-pyrrolidinyl]-1,4-dihydro-4-oxo-1,8-naphthyridine-3-carboxylic acid] | 0.1 µg/mL (≈ 0.267 µM) | 0.1 µg/mL (≈ 0.267 µM) | 0.2 µg/mL (≈ 0.534 µM) | 0.4 µg/mL (≈ 1.07 µM) | 1.6 µg/mL (≈ 4.27 µM) | 0.1 µg/mL (≈ 0.267 µM) | 0.05 µg/mL (≈ 0.134 µM) | 0.025 µg/mL (≈ 0.0668 µM) | 0.05 µg/mL (≈ 0.134 µM) | 0.05 µg/mL (≈ 0.134 µM) | 4.6 mg/kg | 1.2 mg/kg | – | – | 88 µg/mL (≈ 235 µM) | 8 mg/kg | 5 mg/kg
C[C@@H](N)[C@H]1CCN(c2cc3c(cc2F)c(=O)c(C(=O)O)cn3C2CC2)C1 [Example 1, 3S,1R-1-cyclopropyl-6-fluoro-7-[3-(1-aminoethyl)-1-pyrrolidinyl]-1,4-dihydro-4-oxo-3-quinolinecarboxylic acid] | 0.2 µg/mL (≈ 0.556 µM) | 0.2 µg/mL (≈ 0.556 µM) | 0.4 µg/mL (≈ 1.11 µM) | 0.8 µg/mL (≈ 2.23 µM) | 1.5 µg/mL (≈ 4.17 µM) | 0.4 µg/mL (≈ 1.11 µM) | 0.05 µg/mL (≈ 0.139 µM) | 0.2 µg/mL (≈ 0.556 µM) | 0.1 µg/mL (≈ 0.278 µM) | 0.1 µg/mL (≈ 0.278 µM) | 35 mg/kg | 2 mg/kg | > 100 mg/kg | 3 mg/kg | 160 µg/mL (≈ 445 µM) | – | –
CCOc1c(N2CC[C@@H]([C@H](C)NC)C2)c(F)cc2c(=O)c(C(=O)O)cn(C3CC3)c12 [Example 57, 3R,1S-1-cyclopropyl-8-ethoxy-6-fluoro-1,4-dihydro-7-[3-(1-N-methylaminoethyl)-1-pyrrolidinyl]-4-oxo-3-quinolinecarboxylic acid] | 0.4 µg/mL (≈ 0.958 µM) | 0.4 µg/mL (≈ 0.958 µM) | 0.4 µg/mL (≈ 0.958 µM) | 0.8 µg/mL (≈ 1.92 µM) | 3.1 µg/mL (≈ 7.43 µM) | 0.025 µg/mL (≈ 0.0599 µM) | 0.013 µg/mL (≈ 0.0311 µM) | 0.05 µg/mL (≈ 0.12 µM) | 0.025 µg/mL (≈ 0.0599 µM) | 0.025 µg/mL (≈ 0.0599 µM) | – | – | – | – | 220 µg/mL (≈ 527 µM) | – | –
CN[C@@H](C)[C@@H]1CCN(c2nc3c(cc2F)c(=O)c(C(=O)O)cn3-c2ccc(F)cc2F)C1 [Example 64, 3R,1S-1-(2,4-difluorophenyl)-6-fluoro-1,4-dihydro-7-[3-[1-(methylamino)ethyl]-1-pyrrolidinyl]-4-oxo-1,8-naphthyridine-3-carboxylic acid, monohydrochloride] | 0.8 µg/mL | 0.4 µg/mL | 0.8 µg/mL | 1.6 µg/mL | 3.1 µg/mL | 0.1 µg/mL | 0.025 µg/mL | 0.2 µg/mL | 0.025 µg/mL | 0.05 µg/mL | 5 mg/kg | 2 mg/kg | – | – | 310 µg/mL | 4 mg/kg | 2 mg/kg
